Measurements taken from patent US5550212A, “Analogues of hGH-RH(1-29)NH2 having antagonistic activity” (The Administrators of the Tulane Educational Fund, priority 1993, dated 1996).
Non-standard residues stand in square brackets, D forms with d. Residues, ends and D or L forms follow the SMILES beside them. No end group written: not given here. *: point of attachment. Phe(4-Cl) = N[C@@H](Cc1ccc(Cl)cc1)C(=O)O; Agmatine = N=C(N)NCCCCN*; Nle = CCCC[C@H](N)C(=O)O; Abu = CC[C@H](N)C(=O)O; X1 = O=C(CCBr)*

Experiments:
[1] = system: hGH-RH(1-29)NH2 induced GH release; assay: Superfused rat pituitary system: inhibition of hGH-RH(1-29)NH2 induced GH release; type: cell-based; conditions: for Inhibition of GH release (%) 0 min: 0 min response; for Inhibition of GH release (%) 30 min: 30 min response; for Inhibition of GH release (%) 60 min: 60 min response
Method: Superfused Rat Pituitary System. The analogues were tested in vitro in a test described earlier (S. Vigh and A. V. Schally, Peptides 5:241-[…], 1984) with modification ([…] and […]. 90:2146-2149, 1993). Briefly, the cells are preincubated with peptides for 9 minutes (3 mL) at various concentrations. Immediately after the incubation, 1 nM hGH-RH(1-29)NH2 is administered for 3 minutes (1 mL) [0 minute response]. To check the duration of the antagonistic effect of the analogue, 1 nM hGH-RH(1-29)NH2 is applied 30, 60, 90, and 120 minutes later for 3 minutes [30, 60, 90, 120 min responses]. Net integral values of the GH responses are evaluated. GH responses are compared to and expressed as percent of the original GH response induced by 1 nM GH-RH(1-29)NH2. The effect of the new antagonists are compared to that of [Ac-[…] ]hGH-RH(1-29)NH2, the "Standard antagonist". Growth Hormone Radio-immunoassay. Rat GH levels in aliquots of undiluted and diluted superfusion samples were measured by double-antibody radioimmunoassay using materials supplied by the National Hormone and Pituitary Program, Baltimore, Md. The results of RIA were analyzed with a computer program developed in our institute (V. Csernus and A. V. Schally, Harwood Academic (Greenstein, B. C. ed., London, pp. 71-109, 1991), hereby incorporated by reference. Inter-assay variation was less than 15% and intra-assay variation was less than 10%.

[2] = target: T1, rat pituitary GH-RH receptors (Rattus norvegicus, UniProt Q02644); assay: GH-RH binding assay, competitive binding on rat anterior pituitary membrane homogenates; conditions: for R.A. (relative affinity compared to the Standard antagonist): ratio of Ki values, Standard = 1
T1 construct: from tissue; host or cells: rat anterior pituitary (male Sprague-Dawley), crude membranes
T1 sequence (Q02644 23-464): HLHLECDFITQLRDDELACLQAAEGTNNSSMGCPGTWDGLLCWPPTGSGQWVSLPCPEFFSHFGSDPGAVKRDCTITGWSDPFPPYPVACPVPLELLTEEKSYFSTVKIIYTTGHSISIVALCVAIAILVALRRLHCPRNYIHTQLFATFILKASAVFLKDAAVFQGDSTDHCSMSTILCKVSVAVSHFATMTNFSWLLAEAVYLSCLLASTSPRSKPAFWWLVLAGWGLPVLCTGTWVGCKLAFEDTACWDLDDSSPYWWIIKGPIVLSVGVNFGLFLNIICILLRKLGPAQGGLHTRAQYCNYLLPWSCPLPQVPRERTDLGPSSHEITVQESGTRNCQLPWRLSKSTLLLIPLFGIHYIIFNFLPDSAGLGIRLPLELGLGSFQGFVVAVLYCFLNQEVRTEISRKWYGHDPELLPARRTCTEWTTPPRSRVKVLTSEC
Method: GH-RH Binding Assay. A sensitive radioreceptor binding assay was developed to determine the binding characteristics of the antagonists of GH-RH (G. Halmos, A. V. Schally et al., Receptor 3, 87-97, 1993), hereby incorporated by reference. The assay is based on binding of labelled [His^1,Nle^27 ]hGH-RH(1-32)NH2 to rat anterior pituitary membrane homogenates. Iodinated derivatives of [His^1,Nle^27 ]hGH-RH(1-32)NH2 are prepared by the chloramine-T method (F. C. Greenwood et al., Biochemistry 89:114-123, 1963), hereby incorporated by reference. Pituitaries from male Sprague-Dawley rats (250-300 g) are used to prepare crude membranes. For saturation binding analyses, membrane homogenates are incubated with at least 6 concentrations of [His^1,^25 I-Tyr^10,Nle^27 ]hGH-RH(1-32)NH2, ranging from 0.005 to 0.35 nM in the presence or absence of excess unlabelled peptide (1 μM). The pellet is counted for radioactivity in a y-counter. The affinities of the antagonist peptides tested to rat pituitary GH-RH receptors are determined in competitive binding experiments. The final binding affinities are estimated by Ki (dissociation constant of the inhibitor-receptor complex) and are determined by the Ligand PC computer program of Munson and Rodbard as modified by McPherson. Relative affinities compared to [Ac-Tyr^1,D-Arg^2 ]hGH-RH(1-29)NH2, the Standard antagonist, are calculated as the ratio of Ki of the tested GH-RH antagonist to the Ki of the Standard antagonist.

[3] = system: hGH-RH(1-29)NH2 induced GH release; assay: In vivo test: serum GH levels in rats pretreated with GH-RH antagonists before hGH-RH(1-29)NH2; set-up: species or system Sprague-Dawley rats
Method: In Vivo Tests. Adult male Sprague-Dawley rats are anesthetized with pentobarbital (6 mg/100 g b.w., i.p.). Blood samples are taken from the jugular vein 30 min after the injection of pentobarbital. One group of 7 animals receives hGH-RH(1-29)NH2 as control. Other groups of rats are injected with [Ac-Tyr^1,D-Arg^2 ]hGH-RH(1-29)NH2 as Standard antagonist, or with one of the antagonist peptide 30 seconds prior to hGH-RH(1-29)NH2, which is administered at dose of 2-3 μg/kg b.w. Blood samples are taken from the jugular vein 5 and 15 min after the injection of antagonists. GH levels are measured by RIA. Potencies of the antagonists are calculated by the factorial analysis of Bliss and Marks with 95% confidence limits and are based on the doses of 100 and 400 μg/kg b.w. of the Standard antagonist and 20 and 80 μg/kg b.w. of the antagonists tested. Statistical significance was assessed by Duncan's new multiple range test.

GH release [4] = conditions: cited from earlier work; for bioactivity (in words): compared with hGH-RH(1-29)NH2
GH release [5] = conditions: cited from earlier work

For CCCC[C@H](NC(=O)[C@@H](NC(=O)[C@H](CC(=O)O)NC(=O)[C@H](CCC(N)=O)NC(=O)[C@H](CC(C)C)NC(=O)[C@H](CC(C)C)NC(=O)[C@H](CCCCN)NC(=O)[C@H](CCCNC(=N)N)NC(=O)[C@H](C)NC(=O)[C@H](CO)NC(=O)[C@H](CC(C)C)NC(=O)[C@H](CCC(N)=O)NC(=O)[C@H](CC)NC(=O)[C@H](CC(C)C)NC(=O)[C@@H](NC(=O)[C@H](CCCCN)NC(=O)[C@H](CCCNC(=N)N)NC(=O)[C@H](Cc1ccc(O)cc1)NC(=O)[C@H](CO)NC(=O)[C@H](CC(N)=O)NC(=O)[C@@H](NC(=O)[C@H](Cc1ccc(Cl)cc1)NC(=O)[C@@H](NC(=O)[C@H](C)NC(=O)[C@H](CC(=O)O)NC(=O)[C@@H](CCCNC(=N)N)NC(=O)[C@H](Cc1ccc(O)cc1)NC(=O)CCBr)[C@@H](C)CC)[C@@H](C)O)C(C)C)[C@@H](C)CC)C(=O)N[C@@H](CO)C(=O)NCCCCNC(=N)N [Peptide 20] (X1-Y[dR]DAI[Phe(4-Cl)]TNSYRKVL[Abu]QLSARKLLQDI[Nle]S-Agmatine; N-terminus assumed), the “Inhibition of GH release (%) 0 min” value ([1]; dose 10 nM) was 56.2%, the “Inhibition of GH release (%) 30 min” value ([1]; dose 10 nM) was 35.2% and the “Inhibition of GH release (%) 60 min” value ([1]; dose 10 nM) was 51.8%. For the same compound, the “Inhibition of GH release (%) 0 min” value ([1]; dose 30 nM) was 58%, the “Inhibition of GH release (%) 30 min” value ([1]; dose 30 nM) was 19.3% and the “Inhibition of GH release (%) 60 min” value ([1]; dose 30 nM) was 35.3%. For the same compound, the “Inhibition of GH release (%) 0 min” value ([1]; dose 100 nM) was 86.4%, the “Inhibition of GH release (%) 30 min” value ([1]; dose 100 nM) was 75% and the “Inhibition of GH release (%) 60 min” value ([1]; dose 100 nM) was 62.8%. For the same compound, the “R.A. (relative affinity compared to the Standard antagonist)” value [2] was 3.27.

With CC[C@H](C)[C@H](NC(=O)[C@H](C)NC(=O)[C@H](CC(=O)O)NC(=O)[C@@H](CCCNC(=N)N)NC(=O)[C@H](Cc1ccc(O)cc1)NC(C)=O)C(=O)N[C@@H](Cc1ccccc1)C(=O)N[C@H](C(=O)N[C@@H](CC(N)=O)C(=O)N[C@@H](CO)C(=O)N[C@@H](Cc1ccc(O)cc1)C(=O)N[C@@H](CCCNC(=N)N)C(=O)N[C@@H](CCCCN)C(=O)N[C@H](C(=O)N[C@@H](CC(C)C)C(=O)NCC(=O)N[C@@H](CCC(N)=O)C(=O)N[C@@H](CC(C)C)C(=O)N[C@@H](CO)C(=O)N[C@@H](C)C(=O)N[C@@H](CCCNC(=N)N)C(=O)N[C@@H](CCCCN)C(=O)N[C@@H](CC(C)C)C(=O)N[C@@H](CC(C)C)C(=O)N[C@@H](CCC(N)=O)C(=O)N[C@@H](CC(=O)O)C(=O)N[C@H](C(=O)N[C@@H](CCSC)C(=O)N[C@@H](CO)C(=O)N[C@@H](CCCNC(=N)N)C(N)=O)[C@@H](C)CC)C(C)C)[C@@H](C)O [Standard antagonist, [Ac-Tyr^1, D-Arg^2]hGH-RH(1-29)NH2, reference compound] (Ac-Y[dR]DAIFTNSYRKVLGQLSARKLLQDIMSR-NH2) the “Inhibition of GH release (%) 0 min” value ([1]; dose 100 nM) was 62.1%, the “Inhibition of GH release (%) 30 min” value ([1]; dose 100 nM) was 2.5% and the “Inhibition of GH release (%) 60 min” value ([1]; dose 100 nM) was 19%. For the same compound, the Ki ([2]; competition with labelled [His1,Nle27]hGH-RH(1-32)NH2) was 3.22 ± 0.12 nM, the “R.A. (relative affinity compared to the Standard antagonist)” value [2] was 1 and the “GH Levels” value ([3]; antagonist 100.0 μg/kg intravenously before GH-RH(1-29)NH2) was 738.3 ± 34.7 ng/mL. For the same compound, the “GH Levels” value ([3]; antagonist 400.0 μg/kg intravenously before GH-RH(1-29)NH2) was 439.7 ± 47.3 ng/mL.

In the case of “GH-RH(1-27)NH2 (YADAIFTNSYRKVLGQLSARKLLQDIM-NH2; UniProt P01286 32-58, looked up, fragment) [shorter GH-RH analogue]”, the “bioactivity (in words)” value (GH release [4]) is listed as “substantially lower bioactivity”.

For “GH-RH(1-28)NH2 (YADAIFTNSYRKVLGQLSARKLLQDIMS-NH2; UniProt P01286 32-59, looked up, fragment) [shorter GH-RH analogue]”, the “bioactivity (in words)” value (GH release [4]) is given as “substantially lower bioactivity”.

In the case of “[Ac-Tyr^1 ]GH-RH (Ac-YADAIFTNSYRKVLGQLSARKLLQDIMSRQQGESNQERGARARL; ends and bridges not checked; UniProt P01286 32-75, looked up)”, the “GH releasing activity relative to GH-RH” value (GH release [4]) is listed as 2-3%.

In the case of [AcTyr^1 ]hGH-RH(1-29)NH2, the “in vivo potency over that of GH-RH” value (GH release [5]) is listed as “ten fold or more”.

In the case of [D-Tyr^1 ]GH-RH, the “GH releasing activity relative to GH-RH” value (GH release [4]) is listed as 2-3%.

In the case of “hGH-RH(2-44) (ADAIFTNSYRKVLGQLSARKLLQDIMSRQQGESNQERGARARL; ends and bridges not checked; UniProt P01286 33-75, looked up, fragment) [GH-RH without its N-terminus residue]”, the “GH releasing activity relative to GH-RH” value (GH release [4]) is given as 0.1%.
